Values of other authors as cited in patent US12257342B2, “Phenylephrine hydrochloride ready-to-use solution” (Hikma Pharmaceuticals USA Inc., priority 2015, dated 2025).

Tested on: α−1 adrenergic receptor
Conditions: following an intravenous bolus administration

Compound: CNC[C@H](O)c1cccc(O)c1.Cl [Phenylephrine hydrochloride, (−)-m-Hydroxy-α-[(methylamino)methyl]benzyl alcohol hydrochloride]
- onset of blood pressure increase: rapid
- persistence of the blood pressure effect: up to 20 minutes
